Source: paper PMC10748408 (Frontiers in Oncology, 2023)
Marks after values point to notes of the source that are not given here.

Assays:
[1] = system: tumor-bearing mice; experiment: Hematological parameters of tumor-bearing mice treated with ART; type: in vivo, BALB/c mice; conditions: 7 days
[2] = system: 4T1 cells; experiment: Cell viability assay (MTT); type: cell-based, murine; conditions: Mus musculus, 24 hours
Description: (§1) Human triple negative breast cancer cells MDA-MB-231 and murine mammary cancer cells 4T1 were obtained from National Centre for Cell Sciences, Pune, India. Cells were maintained in complete Dulbecco’s Modified Eagle Medium (DMEM) supplemented with 10% FBS and 1% penicillin/streptomycin, and incubated at 37°C in 5% CO2 - 95% humidified atmosphere. Cells in log phase of growth was used for all subsequent experiments ([21]). 1 x 10^5 viable cells were seeded in a 96-well plate. […] Following treatment, wells were washed to remove the media and 100 µl of PBS was added to each well. Finally, 10 µl of MTT solution (5 mg/mL in PBS) was added and incubated at 37°C for 3 hours. The purple crystals formed were dissolved in 150 µl of DMSO. Absorbance was measured at 570 nm in a multi-plate reader Varioskan™ Lux (Thermo Fisher Scientific, USA; [21]).

[3] = system: normal mice; experiment: Serum biochemical parameters (ALT, AST, creatinine, urea) of normal mice treated with ART; type: in vivo, BALB/c mice
Description: Levels of alanine aminotransferase (ALT) and aspartate aminotransferase (AST) from the serum were determined using ALT and AST estimation kits (Robonik India Pvt. Ltd, India). Briefly, for ALT activity estimation, Reagent 1 (Tris Buffer, L-Alanine, Lactate Dehydrogenase) and Reagent 2 (α-ketoglutarate, NADH) was mixed (4:1) with 100 µl serum. After 60 seconds incubation, absorbance was measured at 340 nm every minute for 180 seconds (ΔA/minute). Finally, the activity was estimated using the formula: Activity of the sample = (ΔA/minute x 1746). Analysis and final calculations were carried out according to the manufacturer’s protocol ([29]) For AST activity estimation, Reagent 1 (Tris Buffer, L-Aspartate, Lactate Dehydrogenase; >600U/L, Malate dehydrogenase; >600U/L) and Reagent 2 (α-ketoglutarate, NADH) was mixed together (4:1) with 100 µl serum. After incubation for 60 seconds, absorbance was measured at 340 nm per minute for 180 seconds (ΔA/minute). Finally, the activity was estimated using the formula: Activity of the sample = (ΔA/minute x 1746). Analysis and final calculations were carried out according to the manufacturer’s protocol ([30]). For estimation of creatinine level, picric acid (0.5 ml), buffer (0.5 ml) and sample (Test)/standard (S) (0.1 ml) were mixed and absorbance was measured at 520 nm for 30 seconds and 60 seconds. The rate of change of absorbance was determined for the standard (ΔS) and test (ΔT) samples. The levels were estimated using the formula: creatinine (mg/dl) = (ΔT)/(ΔS) x 2.0 ([31]). Urea levels were estimated using specific metabolite analysis kits. Buffer (1 ml), enzyme (0.1 ml), sample (test)/standard (0.1 ml) and chromogen reagent (0.2 ml) were mixed. Absorbance was measured at 570 nm after 5 minutes of incubation of test (Abs T) and standard (Abs S) samples. The levels were estimated using the formula: Urea (mg/dl) = (AbsT)/(AbsS) x 40. Analysis and calculations were carried out according to the manufacturer’s protocol ([32]). […]

[4] = system: 4T1 cells; experiment: Apoptotic cells (Annexin-FITC/PI flow cytometry) with or without CLEC12A overexpression; type: cell-based, murine; conditions: 4T1, non-transfected, ART + (1 µM, 24 hours); without ART 0.2%
Description: Cells, isolated from normal and treated/untreated tumor tissues by collagenase-hyaluronidase digestion, were washed with Ca^2+-free PBS and stained with Annexin V binding buffer (1X). The cells were then incubated with Annexin V-FITC and propidium iodide (PI) for 15 minutes at 37°C. Cells were eventually analyzed on the BD FACS Aria III (Alexa Fluor at 488nm and PE at 570 nm, respectively). The percentage of apoptotic and necrotic cells were analyzed using the […]™ software (BD Biosciences, USA; [37]). For transfection, MDA-MB-231 and 4T1 cells were grown in a 6-well plate until they reached 70% confluency. CLEC12A-pcDNA recombinant/empty DNA plasmid (2500ng) or pcDNA empty vector (2500ng) was transfected into cells using 5μl Lipofectamine® 2000 reagent. […] Finally, transfection efficiency was confirmed by western blot analysis ([42]).

[5] = system: MDA-MB-231 cells; experiment: Cell viability assay (MTT); type: cell-based; conditions: Homo sapiens, 24 hours
Description: as §1

[6] = ART 6.25 mg/kg body wt, 3 weeks (21 days)
[7] = ART 12.5 mg/kg body wt, 3 weeks (21 days)
[8] = ART 25 mg/kg body wt, 3 weeks (21 days)
[9] = ART 50 mg/kg body wt, 3 weeks (21 days)

C[C@@H]1CC[C@H]2[C@@H](C)C(=O)O[C@@H]3O[C@@]4(C)CC[C@@H]1[C@]32OO4 [ART, Artemisinin]
Differential Count % B (Basophils) ([1]; ART 6.25 mg/kg body wt i.p.): 0%
Differential Count % E (Eosinophils) ([1]; ART 6.25 mg/kg body wt i.p.): 0%
Differential Count % L (Lymphocyte) ([1]; ART 6.25 mg/kg body wt i.p.): 36± 2.5%
Differential Count % M (Monocytes) ([1]; ART 6.25 mg/kg body wt i.p.): 1%
Differential Count % N (Neutrophils) ([1]; ART 6.25 mg/kg body wt i.p.): 63± 1.4%
Hb ([1]; ART 6.25 mg/kg body wt i.p.): 10.1 ± 0.42 g/dL
Total RBC ([1]; ART 6.25 mg/kg body wt i.p.): 5.1± 0.1 10^6 cells/mm^3
Total WBC ([1]; ART 6.25 mg/kg body wt i.p.): 16.8± 0.8** 10^3 cells/mm^3
Differential Count % B (Basophils) ([1]; ART 12.5 mg/kg body wt i.p.): 0%
Differential Count % E (Eosinophils) ([1]; ART 12.5 mg/kg body wt i.p.): 0%
Differential Count % L (Lymphocyte) ([1]; ART 12.5 mg/kg body wt i.p.): 51± 2.6 %
Differential Count % M (Monocytes) ([1]; ART 12.5 mg/kg body wt i.p.): 1%
Differential Count % N (Neutrophils) ([1]; ART 12.5 mg/kg body wt i.p.): 48± 2.6 %
Hb ([1]; ART 12.5 mg/kg body wt i.p.): 13.7 ± 0.33 g/dL
Total RBC ([1]; ART 12.5 mg/kg body wt i.p.): 6.3± 0.29^* 10^6 cells/mm^3
Total WBC ([1]; ART 12.5 mg/kg body wt i.p.): 10.2± 1.16^*** 10^3 cells/mm^3
Differential Count % B (Basophils) ([1]; ART 25 mg/kg body wt i.p.): 0%
Differential Count % E (Eosinophils) ([1]; ART 25 mg/kg body wt i.p.): 0%
Differential Count % L (Lymphocyte) ([1]; ART 25 mg/kg body wt i.p.): 53± 2.1 %
Differential Count % M (Monocytes) ([1]; ART 25 mg/kg body wt i.p.): 1%
Differential Count % N (Neutrophils) ([1]; ART 25 mg/kg body wt i.p.): 46± 1.3 %
Hb ([1]; ART 25 mg/kg body wt i.p.): 14.2 ± 0.21 g/dL
Total RBC ([1]; ART 25 mg/kg body wt i.p.): 6.7± 0.14^* 10^6 cells/mm^3
Total WBC ([1]; ART 25 mg/kg body wt i.p.): 9.3± 1.8^*** 10^3 cells/mm^3
Differential Count % B (Basophils) ([1]; ART 50 mg/kg body wt i.p.): 0%
Differential Count % E (Eosinophils) ([1]; ART 50 mg/kg body wt i.p.): 0%
Differential Count % L (Lymphocyte) ([1]; ART 50 mg/kg body wt i.p.): 57± 1.2 %
Differential Count % M (Monocytes) ([1]; ART 50 mg/kg body wt i.p.): 2%
Differential Count % N (Neutrophils) ([1]; ART 50 mg/kg body wt i.p.): 41± 1.5 %
Hb ([1]; ART 50 mg/kg body wt i.p.): 14.6 ± 0.61 g/dL
Total RBC ([1]; ART 50 mg/kg body wt i.p.): 7.6± 0.67^* 10^6 cells/mm^3
Total WBC ([1]; ART 50 mg/kg body wt i.p.): 9.1± 1.23^*** 10^3 cells/mm^3
IC50 [2]: 1000 nM
ALT [3, 6]: 28.1±2.6 U/l
AST [3, 6]: 29.8±4.6 U/l
Creatinine [3, 6]: 0.48 ± 0.21 mg/dL
Urea [3, 6]: 31.6 ± 1.9 mg/dL
ALT ([3]; ART 6.25 mg/kg body wt, 7 days): 23.7 ± 1.8 U/l
AST ([3]; ART 6.25 mg/kg body wt, 7 days): 27.3 ± 0.8 U/l
Creatinine ([3]; ART 6.25 mg/kg body wt, 7 days): 0.51 ± 0.09 mg/dL
Urea ([3]; ART 6.25 mg/kg body wt, 7 days): 24.5 ± 1.2 mg/dL
ALT [3, 7]: 29.3±3.1 U/l
AST [3, 7]: 31.4±2.6 U/l
Creatinine [3, 7]: 0.68 ± 0.12 mg/dL
Urea [3, 7]: 28.7 ± 2.3 mg/dL
ALT ([3]; ART 12.5 mg/kg body wt, 7 days): 26.6 ± 2.2 U/l
AST ([3]; ART 12.5 mg/kg body wt, 7 days): 29.6 ± 1.3 U/l
Creatinine ([3]; ART 12.5 mg/kg body wt, 7 days): 0.77 ± 0.13 mg/dL
Urea ([3]; ART 12.5 mg/kg body wt, 7 days): 26.3 ± 1.6 mg/dL
ALT [3, 8]: 29.5±2.1 U/l
AST [3, 8]: 28.5±2.8 U/l
Creatinine [3, 8]: 0.49 ± 0.3 mg/dL
Urea [3, 8]: 30.1 ± 2.6 mg/dL
ALT ([3]; ART 25 mg/kg body wt, 7 days): 30.7 ± 1.5 U/l
AST ([3]; ART 25 mg/kg body wt, 7 days): 31.7 ± 3.1 U/l
Creatinine ([3]; ART 25 mg/kg body wt, 7 days): 0.62 ± 0.07 mg/dL
Urea ([3]; ART 25 mg/kg body wt, 7 days): 28.2 ± 0.8 mg/dL
ALT [3, 9]: 28.8±3.2 U/l
AST [3, 9]: 30.3±1.9 U/l
Creatinine [3, 9]: 0.62 ± 0.38 mg/dL
Urea [3, 9]: 28.9 ± 2.1 mg/dL
ALT ([3]; ART 50 mg/kg body wt, 7 days): 26.4 ± 2.3 U/l
AST ([3]; ART 50 mg/kg body wt, 7 days): 29.3 ± 2.6 U/l
Creatinine ([3]; ART 50 mg/kg body wt, 7 days): 0.71 ± 0.1 mg/dL
Urea ([3]; ART 50 mg/kg body wt, 7 days): 27.1 ± 1.3 mg/dL
percentage of apoptotic cells [4]: 11%
IC50 [5]: 5000 nM
